From patent US20060094649A1, “Hla-a1,-a2,-a3,-a24,-b7, and-b44 tumor associated antigen peptides and compositions” (priority 2002, published 2006) come the findings set out here.

One assay deals with HLA-A*0301 (Homo sapiens, UniProt P04439). Nature of the assay: Class I peptide-binding assay, HLA-A*0301. The following applies: Table 16b, Her2/neu-derived.
The next assay concerns the target HLA-A*1101 (Homo sapiens, UniProt P04439, A114D/D185E/E176A/F33Y/L180Q/S129P/T187R). In words: Class I peptide-binding assay, HLA-A*1101. The following applies: Table 16b, Her2/neu-derived.
A further assay deals with HLA-A*3101 (Homo sapiens, UniProt P04439, A270S/D185E/E176V/E277Q/F33T/G231S/G80R/H175R/I121M/I218V/I322F/K168Q/L300P/L318F/M331R/P217A/Q94H/R138Q/T323A/T345S/T97I/V358M). Nature of the assay: Class I peptide-binding assay, HLA-A*3101. The following applies: Table 16b, Her2/neu-derived.
Another assay deals with HLA-A*3301 (Homo sapiens, UniProt P04439, A270S/D185E/E176V/E277Q/E87N/F33T/G231S/H175R/I121M/I218V/I322F/K168Q/K210R/L300P/L318F/M331R/P217A/Q86R/Q94H/R138Q/T323A/T345S/T97I/V358M/Y195H). In words: Class I peptide-binding assay, HLA-A*3301. The following applies: Table 16b, Her2/neu-derived.
The next assay has as its target HLA-A*6801 (Homo sapiens, UniProt P04439, A269V/D185E/E176V/E277Q/E87N/F33Y/G231S/I121M/I166T/I218V/L180W/L300P/L318F/N151K/P208A/P217A/Q86R/R169H/T345S). In words: Class I peptide-binding assay, HLA-A*6801. The following applies: Table 16b, Her2/neu-derived.
Another assay concerns the target HLA-B*4002 (Homo sapiens, UniProt P01889, A65T/A93T/A95T/D138N/D201E/D98Y/E176V/E204Q/E69K/K202T/N87E/Q56L/Q94N/R180L/S48T/Y33H/Y91S). Nature of the assay: Class I peptide-binding assay, HLA-B*4002 (B44 supertype). The following applies: HER2/neu-derived B44 peptides, Table 27; binding to purified HLA-B*4002.
The target in the next assay is HLA-A*2402 (Homo sapiens, UniProt P04439, D101N/D140Y/D185E/E176V/E190D/F33S/G103R/G107R/I119L/I121M/I306V/K335N/L105A/L180Q/L300P/N151K/N90K/Q86E/Q94H/R106L/R138H/R89G/T104I/T345S/V100E/W191G/Y123F). Nature of the assay: Class I peptide-binding assay, HLA-A*2402. The following applies: Table 19a, CEA-derived A24 binders.

The IC50 is the concentration that inhibits the measured activity by half. Read a high IC50 as lower potency. As for `CC[C@H](C)[C@H](NC(=O)CNC(=O)[C@H](Cc1ccccc1)NC(=O)[C@@H](NC(=O)[C@@H](N)C(C)C)C(C)C)C(=O)N[C@@H](CC(C)C)C(=O)N[C@H](C(=O)N[C@@H](CCCCN)C(=O)N[C@@H](CCCNC(=N)N)C(=O)N[C@@H](CCCNC(=N)N)C(=O)O)[C@@H](C)CC` [compound 58], the concentration for half-maximal inhibition (IC50) on HLA-A*0301 was 3670 nM; on HLA-A*1101 it was 375 nM; at HLA-A*3101, 290 nM; on HLA-A*3301, 193 nM; on HLA-A*6801, 15 nM.
`CC[C@H](C)[C@H](NC(=O)[C@@H](NC(=O)[C@H](CS)NC(=O)[C@@H](NC(=O)[C@@H]1CCCN1C(=O)[C@@H]1CCCN1C(=O)[C@H](CCC(N)=O)NC(=O)[C@@H]1CCCN1C(=O)[C@H](CC(C)C)NC(=O)[C@H](CCCNC(=N)N)NC(=O)[C@H](CCC(=O)O)NC(=O)CN)[C@@H](C)CC)[C@@H](C)O)C(=O)O` [compound 493] returned an IC50 at HLA-B*4002 of 9.5 nM.
At HLA-A*2402, H-LWWYNGQSL-OH returned an IC50 of 1460 nM.
